Test results from US9399646B2 (Genentech, Inc., priority 2010, dated 2016).

How the values were obtained:
ER-α in MCF-7 cells = target: T1, ER-α in MCF-7 cells (Homo sapiens, UniProt P03372); experiment: Breast cancer cell ER-α in cell western assay (SP1); type: cell-based; design: endogenous in cells; host or cells: MCF-7; settings: 4 or 24 hr post compound addition; for Emax: MCF7, SP1 antibody, read-out: ER-α In Cell Western Assay (SP1) Max Response; for DC50: SP1 antibody, read-out: ER-α In Cell Western Assay (SP1) IC50
T1 sequence (P03372 1-595): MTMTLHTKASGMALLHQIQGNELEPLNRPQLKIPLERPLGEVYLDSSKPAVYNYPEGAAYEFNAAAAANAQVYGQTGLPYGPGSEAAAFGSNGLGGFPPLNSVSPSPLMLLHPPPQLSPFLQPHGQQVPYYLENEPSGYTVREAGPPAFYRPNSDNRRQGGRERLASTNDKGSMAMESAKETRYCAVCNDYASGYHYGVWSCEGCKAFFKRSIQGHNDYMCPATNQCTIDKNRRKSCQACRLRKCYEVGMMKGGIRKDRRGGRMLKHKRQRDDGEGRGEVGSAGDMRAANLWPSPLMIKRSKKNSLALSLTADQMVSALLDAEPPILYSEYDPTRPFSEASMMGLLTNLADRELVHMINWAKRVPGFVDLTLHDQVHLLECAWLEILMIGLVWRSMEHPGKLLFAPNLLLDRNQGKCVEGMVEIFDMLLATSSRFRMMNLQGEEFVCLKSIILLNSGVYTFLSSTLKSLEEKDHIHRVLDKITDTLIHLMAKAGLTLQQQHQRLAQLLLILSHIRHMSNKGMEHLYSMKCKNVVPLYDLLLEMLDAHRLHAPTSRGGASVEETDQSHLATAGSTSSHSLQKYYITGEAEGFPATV
Description: MCF-7 cells were adjusted to a concentration of 200,000 cells per mL in RPMI containing 10% charcoal-stripped FBS and 20 mM HEPES. 16 microliters of the cell suspension (3200 cells) was added to each well of a poly-D-lysine 384 well plate, and the cells were incubated overnight to allow the cells to adhere. The following day an eleven point, serial semilog dilution of each compound was added to the cells in 16 μL at a final concentration ranging from 0.3-0.000003 μM. At 4 or 24 hr post compound addition, the cells were fixed (10% formalin in PBS) for 20 minutes. Cells were permeablized in PBS 0.1% Triton and blocked with LICOR blocking buffer (50 μl/well, 90°). The wells were then incubated overnight at 4° C. with SP1 rabbit monoclonal Ab (Thermo Scientific) diluted 1:1000 in LICOR blocking buffer/0.1% Tween-20. Wells which were treated with blocking buffer with Tween but no antibody were used as a background control. Wells were washed with 0.1% Tween-20/PBS and then incubated in goat anti-rabbit IRDye™ 800CW (LICOR Inc.; 1:1000) and DRAQ5 DNA dye (1:2000 for 2 mM stock) diluted in LICOR blocking buffer containing 0.1% Tween-20 and 0.01% SDS for 60 minutes. Cells were washed (50 μl/well, 5′ each) in 0.1% Tween-20/PBS. Plates were scanned on a LICOR Odyssey infrared imaging system. Integrated intensities in the 800 nm channel and 700 nm channel were measured to determine levels of ER and DNA respectively. Percent ER levels were determined as follows: (Integrated intensity 800 nm sample/integrated intensity 700 nm sample)/(Integrated intensity 800 nm untreated cells/integrated intensity 700 nm untreated cells)×100=% ER levels.

MCF-7 cells = experiment: Breast cancer cell viability assay (CellTiter-Glo, 5 days); type: cell-based; settings: 5 days' compound exposure; for IC50: Homo sapiens, MCF7, 120 h
Description: MCF-7 cells were adjusted to a concentration of 20,000 cells per mL in RPMI containing 10% FBS and 20 mM HEPES. 16 microliters of the cell suspension (320 cells) was added to each well of a 384 well plate, and the cells were incubated overnight to allow the cells to adhere. The following day an eleven point, serial semilog dilution of each compound was added to the cells in 16 μL at a final concentration ranging from 0.3-0.000003 μM. After 5 days' compound exposure, 16 μL of CellTiter-GLo (Promega, Madison Wis.) was added to the cells the relative luminescence units (RLUs) of each well was determined CellTiter-Glo added to 32 μL of medium without cells was used to obtain a background value. The Percent viability of each sample was determined as follows: (RLU sample-RLU background/RLU untreated cells-RLU background)×100=% viability.

| SMILES | Emax (ER-α in MCF-7 cells) [%] | DC50 (ER-α in MCF-7 cells) [µM] | MCF7 Viability Assay Max Response (MCF-7 cells) | IC50 (MCF-7 cells) [µM] |
| --- | --- | --- | --- | --- |
| CC/C(=C(/c1ccc(/C=C/C(=O)O)cc1)c1ccc2c(c1)C(=O)NC2)c1ccccc1 [Compound 104, (E)-3-(4-((E)-1-(3-Oxoisoindolin-5-yl)-2-phenylbut-1-en-1-yl)phenyl)acrylic acid] | ≥ 40 | > 0.1 | ++ (++ = a single % value ≧ 40%) | > 0.1 |
| CC/C(=C(/c1ccc(/C=C/C(=O)O)cc1)c1ccc2[nH]c(=O)ccc2c1)c1ccccc1 [Compound 105, (E)-3-(4-((E)-1-(2-Oxo-1,2-dihydroquinolin-6-yl)-2-phenylbut-1-en-1-yl)phenyl)acrylic acid] | ≥ 40 | > 0.1 | ++ (++ = a single % value ≧ 40%) | > 0.1 |
| CC/C(=C(/c1ccc(/C=C/C(=O)O)cc1)c1ccc2c(c1)OCC(=O)N2)c1ccccc1 [Compound 107, (E)-3-(4-((E)-1-(3-Oxo-3,4-dihydro-2H-benzo[b][1,4]oxazin-7-yl)-2-phenylbut-1-en-1-yl)phenyl)acrylic acid] | ≥ 40 | > 0.1 | ++ (++ = a single % value ≧ 40%) | > 0.1 |
| CC/C(=C(/c1ccc(/C=C/C(=O)O)cc1)c1ccc2c(c1)CNC2=O)c1ccccc1 [Compound 110, (E)-3-(4-((E)-1-(1-Oxoisoindolin-5-yl)-2-phenylbut-1-en-1-yl)phenyl)acrylic acid] | ≥ 40 | ≤ 0.1 | ++ (++ = a single % value ≧ 40%) | ≤ 0.1 |
| CC/C(=C(/c1ccc(/C=C/C(=O)O)cc1)c1ccc2ncccc2c1)c1ccc(F)cc1 [Compound 118, (E)-3-(4-((E)-2-(4-Fluorophenyl)-1-(quinolin-6-yl)but-1-en-1-yl)phenyl)acrylic acid] | ≥ 40 | > 0.1 | ++ (++ = a single % value ≧ 40%) | > 0.1 |
| CC/C(=C(/c1ccc(/C=C/C(=O)O)cc1)c1ccc2[nH]ncc2n1)c1ccccc1 [Compound 120, (E)-3-(4-((E)-2-Phenyl-1-(1H-pyrazolo[4,3-b]pyridin-5-yl)but-1-en-1-yl)phenyl)acrylic acid] | ≥ 40 | ≤ 0.1 | ++ (++ = a single % value ≧ 40%) | ≤ 0.1 |
| CC/C(=C(/c1ccc(/C=C/C(=O)O)cc1)c1ccc2[nH]c(=O)[nH]c2c1)c1ccccc1 [Compound 122, (E)-3-(4-((E)-1-(2-Oxo-2,3-dihydro-1H-benzo[d]imidazol-5-yl)-2-phenylbut-1-en-1-yl)phenyl)acrylic acid] | ≥ 40 | > 0.1 | ++ (++ = a single % value ≧ 40%) | > 0.1 |
| CC/C(=C(/c1ccc(/C=C/C(=O)O)cc1)c1ccc2ccccc2c1)c1ccccc1 [Compound 123, (E)-3-(4-((E)-1-(Naphthalen-2-yl)-2-phenylbut-1-en-1-yl)phenyl)acrylic acid] | ≥ 40 | ≤ 0.1 | ++ (++ = a single % value ≧ 40%) | > 0.1 |
| CC/C(=C(/c1ccc(/C=C/C(=O)O)cc1)c1ccc2nccnc2c1)c1ccccc1 [Compound 124, (E)-3-(4-((E)-2-Phenyl-1-(quinoxalin-6-yl)but-1-en-1-yl)phenyl)acrylic acid] | ≥ 40 | > 0.1 | + (+ = a single % value < 40%) | > 0.1 |
| CC/C(=C(/c1ccc(/C=C/C(=O)O)cc1)c1ccn2nccc2c1)c1ccccc1 [Compound 125, (E)-3-(4-((E)-2-Phenyl-1-(pyrazolo[1,5-a]pyridin-5-yl)but-1-en-1-yl)phenyl)acrylic acid] | ≥ 40 | > 0.1 | ++ (++ = a single % value ≧ 40%) | > 0.1 |
| CC/C(=C(/c1ccc(/C=C/C(=O)O)cc1)c1ccc2nccn2c1)c1ccccc1 [Compound 126, (E)-3-(4-((E)-1-(Imidazo[1,2-a]pyridin-6-yl)-2-phenylbut-1-en-1-yl)phenyl)acrylic acid] | ≥ 40 | ≤ 0.1 | ++ (++ = a single % value ≧ 40%) | > 0.1 |
| CC/C(=C(/c1ccc(/C=C/C(=O)O)cc1)c1ccc2nncn2c1)c1ccccc1 [Compound 127, (E)-3-(4-((E)-1-([1,2,4]Triazolo[4,3-a]pyridin-6-yl)-2-phenylbut-1-en-1-yl)phenyl)acrylic acid] | < 40 | > 0.1 | + (+ = a single % value < 40%) | > 0.1 |
| CC/C(=C(/c1ccc(/C=C/C(=O)O)cc1)c1ccc2c(c1)OCO2)c1ccccc1 [Compound 128, (E)-3-(4-((E)-1-(Benzo[d][1,3]dioxol-5-yl)-2-phenylbut-1-en-1-yl)phenyl)acrylic acid] | ≥ 40 | > 0.1 | ++ (++ = a single % value ≧ 40%) | > 0.1 |
| CC/C(=C(/c1ccc(/C=C/C(=O)O)cc1)c1ccc2nccn2c1)c1ccccc1C [Compound 129, (E)-3-(4-((E)-1-(Imidazo[1,2-a]pyridin-6-yl)-2-(o-tolyl)but-1-en-1-yl)phenyl)acrylic acid] | ≥ 40 | ≤ 0.1 | ++ (++ = a single % value ≧ 40%) | > 0.1 |
| CC/C(=C(/c1ccc(/C=C/C(=O)O)cc1)c1ccc2ncsc2c1)c1ccccc1 [Compound 130, (E)-3-(4-((E)-1-(Benzo[d]thiazol-6-yl)-2-phenylbut-1-en-1-yl)phenyl)acrylic acid] | ≥ 40 | > 0.1 | ++ (++ = a single % value ≧ 40%) | > 0.1 |
| CC/C(=C(/c1ccc(/C=C/C(=O)O)cc1)c1ccc2cncn2c1)c1ccccc1 [Compound 133, (E)-3-(4-((E)-1-(Imidazo[1,5-a]pyridin-6-yl)-2-phenylbut-1-en-1-yl)phenyl)acrylic acid] | ≥ 40 | > 0.1 | ++ (++ = a single % value ≧ 40%) | > 0.1 |
| CC/C(=C(/c1ccc(/C=C/C(=O)O)cc1)c1ccn2cnnc2c1)c1ccccc1 [Compound 134, (E)-3-(4-((E)-1-([1,2,4]Triazolo[4,3-a]pyridin-7-yl)-2-phenylbut-1-en-1-yl)phenyl)acrylic acid] | < 40 | > 0.1 | + (+ = a single % value < 40%) | > 0.1 |
| CC/C(=C(/c1ccc(/C=C/C(=O)O)cc1)c1ccn2cncc2c1)c1ccccc1 [Compound 135, (E)-3-(4-((E)-1-(Imidazo[1,5-a]pyridin-7-yl)-2-phenylbut-1-en-1-yl)phenyl)acrylic acid] | ≥ 40 | > 0.1 | + (+ = a single % value < 40%) | ≤ 0.1 |
| CC/C(=C(/c1ccc(/C=C/C(=O)O)cc1)c1ccn2ncnc2c1)c1ccccc1 [Compound 136, (E)-3-(4-((E)-1-([1,2,4]Triazolo[1,5-a]pyridin-7-yl)-2-phenylbut-1-en-1-yl)phenyl)acrylic acid] | ≥ 40 | > 0.1 | + (+ = a single % value < 40%) | > 0.1 |
